Assay [1] relates to poly(A·U) (RNA, polymer) A/U. Description: fluorescence titration, Benesi-Hildebrand. To be noted: Na+ (25 mM NaCl, 10 mM sodium cacodylate); 10 mM cacodylate pH 7.0, 0.1 mM Na2EDTA; RNA concentration by ε260 14280; per base.
The test system of assay [2] is poly(A·U) (RNA, polymer) A/U. The experiment in a line: UV melting at 260 nm. The settings on record: Na+ (25 mM NaCl, 10 mM sodium cacodylate); 10 mM cacodylate pH 7.0; 10 and 15 μM Nile blue; free Tm about 46.0 °C.
For assay [3], the system named is poly(I·C) (RNA, polymer, inosine (hypoxanthine base) at every position of strand 1 (written as G)) G/C. Description: UV melting at 260 nm. To be noted: Na+ (25 mM NaCl, 10 mM sodium cacodylate); 10 mM cacodylate pH 7.0; 10 and 15 μM Nile blue; free Tm about 48.0 °C.
Assay [4] has the same test system. The experiment in a line: fluorescence titration, Benesi-Hildebrand. The settings on record: Na+ (25 mM NaCl, 10 mM sodium cacodylate); 10 mM cacodylate pH 7.0, 0.1 mM Na2EDTA; RNA concentration by ε260 10000; per base.
The test system of assay [5] is poly(A·U) (RNA, polymer) A/U. The experiment in a line: absorption titration, Benesi-Hildebrand. To be noted: Na+ (25 mM NaCl, 10 mM sodium cacodylate); 10 mM cacodylate pH 7.0, 0.1 mM Na2EDTA; RNA concentration by ε260 14280; per base.
The test system of assay [6] is poly(I·C) (RNA, polymer, inosine (hypoxanthine base) at every position of strand 1 (written as G)) G/C. The experiment in a line: absorption titration, Benesi-Hildebrand. The settings on record: Na+ (25 mM NaCl, 10 mM sodium cacodylate); 10 mM cacodylate pH 7.0, 0.1 mM Na2EDTA; RNA concentration by ε260 10000; per base.

In the case of `CC[N+](CC)=c1ccc2nc3c(cc(N)c4ccccc43)oc-2c1`, the KBH in assay [1] came out at 211000 M⁻¹; in assay [4], 113000 M⁻¹; in assay [5] it was 586000 M⁻¹; in assay [6] it was 116000 M⁻¹. The binding result in assay [2] and in assay [3] was “yes” in each case.

Values taken from publication PMC11714696 (2024).
